From publication PMC10299727, “Identification and Isolation of α-Glucosidase Inhibitors from Siraitia grosvenorii Roots Using Bio-Affinity Ultrafiltration and Comprehensive Chromatography” (International Journal of Molecular Sciences, 2023)
Several values for one entry are separate records, joined by “and”; a condition that tells them apart may be missing. Identical values can stand only once. Like-named read-outs stand apart in the source and are kept apart here.

What was measured:
α-glucosidase [1] = target: T1, α-glucosidase (Saccharomyces cerevisiae, UniProt P53341); experiment: α-glucosidase inhibitory assay (pNPG substrate, absorbance at 405 nm); type: biochemical
T1 construct: purchased Sigma-Aldrich (Shanghai, China) G5003-100UN
Procedure: The α-glucosidase inhibitory activity of the S. grosvenorii root extracts was determined using a method mentioned previously, with some modifications to it. Briefly, the sample was dissolved in PBS containing 10% dimethyl sulfoxide. A mixture of the tested sample (50 μL, different concentrations) and α-glucosidase (20 μL, 0.2 U/mL) was placed in a 96-well microplate and incubated at 37 °C for 5 min. Next, 20 μL pNPG (1 mM) was added, and the mixture was further reacted for 30 min at 37 °C and terminated through the addition of […] solution (50 μL, […]). The percentage inhibition of α-glucosidase was determined by measuring the absorbance of the mixture at 405 nm and calculated by Equation (1):Inhibition (%) = [1 − (Ainhibitor − Ablank inhibitor)/(Acontrol − Acontrol blank)] × 100(1) where Ainhibitor, Ablank inhibitor, Acontrol, Acontrol blank are the absorbance values of the potential inhibitor and α-glucosidase, only the potential inhibitor without α-glucosidase, only α-glucosidase, and PBS buffer, respectively.

α-glucosidase [2] = target: T1, α-glucosidase; experiment: Affinity ultrafiltration coupled with HPLC (UF-HPLC), specific binding factor; settings: peaks of SGR2 (10 mg/mL) incubated with α-glucosidase; active vs denatured enzyme
Procedure: Affinity UF was performed as previously described, with slight modifications. Briefly, a PBS solution of SGR2 (10 mg/mL, 800 μL) was mixed with α-glucosidase (1 U/mL, 400 μL) and incubated at 37 °C for 45 min. Next, the mixture was centrifuged at 10,000 rpm for 10 min using a UF membrane with a 10 kDa molecular weight cutoff, to collect the active component and α-glucosidase complexes. The complexes were washed 3 times with 600 μL of PBS (0.1 M, pH 7.2) to remove unbound compounds. A solution of 70% methanol (200 μL) was added to the residue and incubated at 4 °C for 20 min to release the bound compounds. Then, the solution was collected and concentrated to a dry state. Subsequently, the dry residue was further dissolved with 0.2 mL methanol and subjected to HPLC analysis. As a negative control, α-glucosidase was inactivated at 100 °C in a water bath for 10 min. […] The specific binding factors were calculated according to Equation (2):Specific binding factor (%) = (Aa − Ab)/Ac × 100%(2) where, Aa is the peak area of the experiment with active α-glucosidase, Ab is the peak area of the control group with denatured α-glucosidase, and Ac is the peak area of the extract.

T1 sequence (P53341 whole entry): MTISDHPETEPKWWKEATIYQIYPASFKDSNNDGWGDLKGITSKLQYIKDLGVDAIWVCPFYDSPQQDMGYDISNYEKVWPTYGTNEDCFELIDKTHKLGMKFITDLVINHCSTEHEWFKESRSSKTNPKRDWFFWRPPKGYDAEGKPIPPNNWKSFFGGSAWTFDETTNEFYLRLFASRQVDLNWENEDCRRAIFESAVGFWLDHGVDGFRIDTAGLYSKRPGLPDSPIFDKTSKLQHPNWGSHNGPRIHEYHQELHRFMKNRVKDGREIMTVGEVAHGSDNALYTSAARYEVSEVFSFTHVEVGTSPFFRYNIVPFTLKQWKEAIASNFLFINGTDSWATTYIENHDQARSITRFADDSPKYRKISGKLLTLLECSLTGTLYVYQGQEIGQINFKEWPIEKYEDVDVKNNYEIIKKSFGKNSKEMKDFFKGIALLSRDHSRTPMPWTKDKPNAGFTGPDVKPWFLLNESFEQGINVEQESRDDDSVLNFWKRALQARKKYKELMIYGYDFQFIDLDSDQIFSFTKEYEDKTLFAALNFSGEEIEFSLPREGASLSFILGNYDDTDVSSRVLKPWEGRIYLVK

| Compound | IC50 (α-glucosidase [1]) [µM] | inhibition at 1000 µg/mL (α-glucosidase [1]) [%] | Specific Binding Factors Mean ± SD (n = 3) (α-glucosidase [2]) | IC50 (α-glucosidase [1]; read-out: IC50) [µM] | Inhibition (%) (α-glucosidase [1]; concentration of 1.0 mg/mL compound) |
| --- | --- | --- | --- | --- | --- |
| COc1cc(C[C@@H]2CO[C@@H](c3ccc(O)c(OC)c3)[C@@H]2CO)ccc1O [Compound 1, (-)-lariciresinol] | 1830 ± 31.3 | 78.2 ± 1.54 | 4.97 ± 0.15% | – | – |
| CC(=CCCC(C)C1CCC2(C)C3CCC4=C(C)C(=O)CCC4C3(C)C(=O)CC12C)C(=O)OC1OC(COC2OC(CO)C(O)C(O)C2O)C(O)C(O)C1O (centres unmarked) [Compound 9, Siraitic acid II G] | – | 53.1 ± 0.99 | 5.33 ± 2.11% | 1581 ± 12.5 | – |
| C/C(=C\CCC(C)C1CCC2(C)C3CC=C4C(CCC(OC5OC(COC6OC(CO)C(O)C(O)C6O)C(O)C(O)C5O)C4(C)C)C3(C)C(=O)CC12C)C(=O)OC1OC(COC2OC(CO)C(O)C(O)C2O)C(O)C(O)C1O (centres unmarked) [Compound 8, Siraitic acid IV H] | – | 23.4 ± 1.05 | 0.27 ± 0.18% | – | – |
| C/C(=C\CCC(C)C1CCC2(C)C3CCC45OCC3(C(=O)CC12C)C4CCC(O)C5C)C(=O)OC1OC(COC2OC(CO)C(O)C(O)C2O)C(O)C(O)C1O (centres unmarked) [Compound 11, Siraitic acid II A] | – | 50.6 ± 1.23 | 6.59 ± 0.91% | 1240 ± 20.5 | – |
| CC(=O)OC(C)(C)CCC(=O)[C@](C)(O)C1[C@H](O)C[C@@]2(C)[C@@H]3CC=C4[C@@H](CC(O)[C@@H](O)C4(C)C)[C@]3(C)C(=O)C[C@]12C (some centres unmarked) [Compound 13, 23,24-dihydrocucurbitacin F-25-acetate] | – | 21.7 ± 0.58 | 1.31 ± 0.06% | – | – |
| CC(=CCCC(C)C1C(O)CC2(C)C3CCC4=C(C)C(=O)CCC4C3C(=O)CC12C)C(=O)OC1OC(COC2OC(CO)C(O)C(O)C2O)C(O)C(O)C1O (centres unmarked) [Compound 7, Siraitic acid II E] | – | 58.5 ± 1.19 | 3.46 ± 1.03% | 1207 ± 5.49 | – |
| CC(=CCCC(C)C1CCC2(C)C3CCC4=C(C)C(=O)CCC4C3C(=O)CC12C)C(=O)OC1OC(COC2OC(CO)C(O)C(O)C2O)C(O)C(O)C1O (centres unmarked) [Compound 14, Siraitic acid II C] | – | 72 ± 2.18 | 17.26% and 17.26 ± 3.14% | 430 ± 13.3 | – |
| Cucurbitacin B [Compound 15] | – | – | 7.98% and 7.98 ± 1.11% | – | 50.59 ± 0.98 |
| CC1=C2CCC3C(C)(C(=O)CC4(C)C(C(C)CC/C=C(\C)C(=O)OC5OC(COC6OC(CO)C(O)C(O)C6O)C(O)C(O)C5O)C(OC5OC(CO)C(O)C(O)C5O)CC34C)C2CCC1=O (centres unmarked) [Compound 4, Siraitic acid III E] | – | 36.74 ± 0.36 | 2.93 ± 0.72% | – | – |
| CC(=O)OC(C)(C)CCC(=O)[C@](C)(O)[C@H]1[C@H](O)C[C@@]2(C)[C@@H]3CC=C4[C@@H](C[C@H](O)C(=O)C4(C)C)[C@]3(C)C(=O)C[C@]12C [Compound 16, 23,24-dihydrocucurbitacin B] | – | 27.5 ± 3.8 | 4.70 ± 0.76% | – | – |
| CC(=O)OC(C)(C)CCC(=O)[C@](C)(O)C1C(O)C[C@@]2(C)[C@@H]3CC=C4[C@@H](CC(=O)[C@@H](O)C4(C)C)[C@]3(C)C(=O)C[C@]12C (some centres unmarked) [Compound 17, Dihydroisocucurbitacin B-25-acetate] | – | 23.7 ± 0.33 | 2.28 ± 0.44% | – | – |
| C/C(=C\CCC(C)C1CCC2(C)C3CCC45OCC3(C(=O)CC12C)C4CCC(=O)C5C)C(=O)OC1OC(COC2OC(CO)C(O)C(O)C2O)C(O)C(O)C1O (centres unmarked) [Compound 12, Siraitic acid II B] | – | 51.3 ± 0.83 | 6.65 ± 1.18% | 1030 ± 36.9 | – |
| COc1cc([C@@H]2Oc3c(OC)cc(/C=C/CO)cc3[C@H]2CO)ccc1O [Compound 2, 3,4′-dimethoxy-4,9,9′-trihydroxy-benzofuranolignan-7′-ene] | – | 63.43 ± 0.23 | 1.87 ± 0.77% | 2275 ± 13.8 | – |
| CC1=C2CCC3C(C)(C(=O)CC4(C)C(C(C)CC/C=C(\C)C(=O)OC5OC(CO)C(O)C(O)C5O)C(OC5OC(CO)C(O)C(O)C5O)CC34C)C2CCC1=O (centres unmarked) [Compound 6, Siraitic acid IIb E] | – | 42.4 ± 0.81 | 3.91 ± 0.17% | – | – |
